In the experiment the target is Mitogen-activated protein kinase 9 (Homo sapiens, UniProt P45984). The experiment in a line: Inhibition of His6-tagged JNK2 (unknown origin) assessed as reduction in c-Jun phosphorylation using GST-c-Jun (1 to 79 residues) and [gamma32P]ATP incubated for 1 hr by scintillation counting assay.

One may read the IC50 as the point on the concentration scale where inhibition reaches its midpoint.

Sequence of Mitogen-activated protein kinase 9 (P45984 whole entry, the tested form may be a part): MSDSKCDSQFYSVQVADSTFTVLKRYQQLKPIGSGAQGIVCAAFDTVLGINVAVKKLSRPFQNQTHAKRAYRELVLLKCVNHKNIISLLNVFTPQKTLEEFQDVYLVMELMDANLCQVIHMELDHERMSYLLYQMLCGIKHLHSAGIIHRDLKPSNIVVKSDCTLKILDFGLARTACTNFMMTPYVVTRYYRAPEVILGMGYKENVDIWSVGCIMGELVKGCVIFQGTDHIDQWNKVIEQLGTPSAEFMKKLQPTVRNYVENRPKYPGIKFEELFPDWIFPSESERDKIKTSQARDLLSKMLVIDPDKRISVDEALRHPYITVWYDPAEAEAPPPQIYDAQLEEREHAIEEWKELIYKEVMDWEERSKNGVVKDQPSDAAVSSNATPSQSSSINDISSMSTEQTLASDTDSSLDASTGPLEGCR

With `O=C(N[C@H]1CCc2ccccc21)c1cccc(-c2n[nH]c3ccc(-c4ncn[nH]4)cc23)c1`, the IC50 was 0.5 to 10 µM.

For `O=C(Nc1cccc(-c2n[nH]c3ccc(-c4nc[nH]n4)cc23)c1)c1ccco1`, the concentration for half-maximal inhibition (IC50) lay within 0.5 to 10 µM.

`COc1ccc(-c2n[nH]c3ccc(-c4n[nH]c(CN(C)C)n4)cc23)cc1`: the IC50 lay within 0.5 to 10 µM.

Regarding `O=C(Nc1ccc2[nH]nc(-c3ccc(F)cc3)c2c1)C1CC1`, the half-inhibitory concentration (IC50) is ≤ 10 µM.

In the case of `NC(=O)c1ccc2[nH]nc(-c3cccc(NC(=O)Cc4ccc(F)cc4)c3)c2c1`, the IC50 lay within 0.5 to 10 µM.

Regarding `O=C(Nc1ccc2[nH]nc(-c3ccc(F)cc3)c2c1)c1ccccn1`, the IC50 fell in the range of 1 to 10 µM.

In the case of `C[C@@H](NC(=O)c1cccc(-c2n[nH]c3ccc(-c4ncn[nH]4)cc23)c1)c1ccccc1`, the IC50 fell in the range of 0.5 to 10 µM.

Consider `COc1ccccc1-c1n[nH]c2ccc(-c3nnn[nH]3)cc12`, for which the half-maximal inhibitory concentration (IC50) fell in the range of 1 to 10 µM.

For `Cc1ccccc1C(=O)Nc1ccc2[nH]nc(-c3ccc(F)cc3)c2c1`, the concentration for half-maximal inhibition (IC50) was in the range of 1 to 10 µM.

For `O=C(Nc1ccc2[nH]nc(-c3ccccc3)c2c1)c1ccccc1`, the IC50 lay within 1 to 10 µM.

For `O=C(Nc1ccc(F)cc1)Nc1ccc2[nH]nc(-c3ccc(F)cc3)c2c1`, the IC50 is ≤ 10 µM.

Regarding `O=C(NC1CCN(Cc2ccccc2)C1)c1cccc(-c2n[nH]c3ccc(-c4nc[nH]n4)cc23)c1` (centres undefined), the 50% inhibitory concentration (IC50) lay in the range of 0.5 to 10 µM.

For the molecule `O=C(Nc1cccc(-c2n[nH]c3ccc(-c4nc[nH]n4)cc23)c1)c1cccnc1`, the IC50 is 0.5 to 10 µM.

In the case of `NC(=O)c1ccc2[nH]nc(-c3cccc(NC(=O)Cc4ccccc4F)c3)c2c1`, the IC50 fell in the range of 0.5 to 10 µM.

In the case of `CN(C)Cc1n[nH]c(-c2ccc3[nH]nc(-c4cccc(C(=O)NC5CC5)c4)c3c2)n1`, the half-inhibitory concentration (IC50) fell in the range of 0.5 to 10 µM.

Regarding `c1ccc2cc(-c3n[nH]c4ccc(-c5ncn[nH]5)cc34)ccc2c1`, the half-inhibitory concentration (IC50) is 1 to 10 µM.

Regarding `O=C(Nc1ccc(-c2n[nH]c3ccc(-c4ncn[nH]4)cc23)cc1)c1ccco1`, the IC50 lay in the range of 1 to 10 µM.

Turning to `c1cc(OCCN2CCOCC2)cc(-c2n[nH]c3ccc(-c4nnn[nH]4)cc23)c1`, the IC50 was in the range of 0.5 to 10 µM.

Take `CN(C)CCOc1ccc(-c2n[nH]c3ccc(C(N)=O)cc23)cc1`: the IC50 lay within 1 to 10 µM.

As to `c1cncc(-c2n[nH]c3ccc(-c4nnn[nH]4)cc23)c1`, the concentration for half-maximal inhibition (IC50) is ≤ 10 µM.

As for `CC(=O)O[C@@H](C)C(=O)Nc1cccc(-c2n[nH]c3ccc(-c4nn[nH]n4)cc23)c1`, the IC50 lay in the range of 0.5 to 10 µM.

As to `CC(C)(C)NC(=O)c1cccc(-c2n[nH]c3ccc(-c4ncn[nH]4)cc23)c1`, the IC50 fell in the range of 0.5 to 10 µM.

On to `CC(O)Cc1nnc(-c2ccc3[nH]nc(-c4ccc(F)cc4)c3c2)[nH]1` (stereo in doubt; form 2), for which the IC50 was in the range of 1 to 10 µM.

Take `CC(C)COc1ccc(-c2n[nH]c3ccc(-c4nnn[nH]4)cc23)cc1`: the half-maximal inhibitory concentration (IC50) was 1 to 10 µM.

For the molecule `NC(=O)c1ccc2[nH]nc(-c3ccc4c(c3)OCCO4)c2c1`, the 50% inhibitory concentration (IC50) lay within 1 to 10 µM.

For `CN1CCN(C(=O)c2cccc(-c3n[nH]c4ccc(-c5ncn[nH]5)cc34)c2)CC1`, the concentration for half-maximal inhibition (IC50) was ≤ 10 µM.

Take `c1cc(-c2n[nH]c3ccc(-c4nnn[nH]4)cc23)ccn1`: the half-maximal inhibitory concentration (IC50) lay in the range of 0.5 to 10 µM.

With `NC(=O)c1ccc2[nH]nc(-c3cccc(NC(=O)Cc4ccccn4)c3)c2c1`, the IC50 is 1 to 10 µM.

Turning to `NC(=O)c1ccc2[nH]nc(-c3ccc4c(c3)CCO4)c2c1`, the concentration for half-maximal inhibition (IC50) was in the range of 1 to 10 µM.

Consider `O=C(NCCN1CCCCC1)c1cccc(-c2n[nH]c3ccc(-c4nc[nH]n4)cc23)c1`, for which the half-inhibitory concentration (IC50) was 0.5 to 10 µM.

Regarding `O=C(N[C@H]1C[C@@H]1c1ccccc1)c1cccc(-c2n[nH]c3ccc(-c4nc[nH]n4)cc23)c1`, the 50% inhibitory concentration (IC50) lay in the range of 0.5 to 10 µM.

On to `NNC(=O)c1ccc2[nH]nc(-c3ccc(F)cc3)c2c1`, for which the half-maximal inhibitory concentration (IC50) lay within 1 to 10 µM.

Consider `O=C(Nc1cccc(-c2n[nH]c3ccc(-c4nc[nH]n4)cc23)c1)c1ccccc1`, for which the IC50 fell in the range of 0.5 to 10 µM.

With `COc1ccccc1C(=O)Nc1ccc2[nH]nc(-c3ccc(F)cc3)c2c1`, the IC50 was ≤ 10 µM.

For the origin of these results see ChEMBL document CHEMBL3882725, “Indazole derivatives as JNK inhibitors and compositions and methods related thereto” (2002).
